Species: Rattus norvegicus
Assay: Open TG-GATES - Regimen: Single
Type: toxicity, organism-based, Sprague-Dawley
Parameters: regimen Single, gender Male, age 6 weeks
Conditions: in vivo, po, route gavage; for APTT / Bas / Eos / Fbg / Hb / Lym / MCH / MCHC / MCV / Mono / RBC / Ret / WBC: tissue Blood; for KIDNEY_L / KIDNEY_R / KIDNEY_TOTAL: tissue Kidney; for LIVER: tissue Liver; for ALP / ALT / AST / CRE / Ca / Cl / DBIL / GLC / IP / K / LDH / Na / PL / RALB / TBIL / TC / TG / TP / gamma-GTP: tissue Plasma
[1] = 0 mg/kg, 3 h, dose level Control
[2] = 0 mg/kg, 6 h, dose level Control
[3] = 0 mg/kg, 9 h, dose level Control
[4] = 0 mg/kg, 24 h, dose level Control

O=C1CN(/N=C/c2ccc(-c3ccc([N+](=O)[O-])cc3)o2)C(O)=N1 [DANTROLENE]
TERMINAL_BW [1]: 200.3 g | APTT [1]: 16.2 s | Bas [1]: 0% | Eos [1]: 1% | Fbg [1]: 209.6 mg/dL | Hb [1]: 13.4 g/dL | Lym [1]: 82.4% | MCH [1]: 22.9 pg | MCHC [1]: 34.6% | MCV [1]: 66.2 fL | Mono [1]: 5.6% | RBC [1]: 586.4 x10_4/ul | Ret [1]: 10.7% | WBC [1]: 134.1 x10_2/uL | KIDNEY_L [1]: 1 g | KIDNEY_R [1]: 1 g | KIDNEY_TOTAL [1]: 1.9 g | LIVER [1]: 9.3 g | ALP [1]: 876.8 IU/L | ALT [1]: 36.2 IU/L | AST [1]: 69.2 IU/L | CRE [1]: 0.5 mg/dL | Ca [1]: 10.6 mg/dL | Cl [1]: 103.8 meq/L | DBIL [1]: 0.058 mg/dL | GLC [1]: 194.2 mg/dL | IP [1]: 8.7 mg/dL | K [1]: 4.7 meq/L | LDH [1]: 92.8 IU/L | Na [1]: 139.6 meq/L | PL [1]: 134.8 mg/dL | RALB [1]: 3.6 g/dL | TBIL [1]: 0.3 mg/dL | TC [1]: 75 mg/dL | TG [1]: 47 mg/dL | TP [1]: 5.3 g/dL | gamma-GTP [1]: 2.2 IU/L | TERMINAL_BW [2]: 201.9 g | APTT [2]: 16.6 s | Bas [2]: 0% | Eos [2]: 1% | Fbg [2]: 205 mg/dL | Hb [2]: 13.3 g/dL | Lym [2]: 77.4% | MCH [2]: 22.6 pg | MCHC [2]: 34.6% | MCV [2]: 65.4 fL | Mono [2]: 9.2% | RBC [2]: 588 x10_4/ul | Ret [2]: 13.2% | WBC [2]: 107.2 x10_2/uL | KIDNEY_L [2]: 1 g | KIDNEY_R [2]: 0.9 g | KIDNEY_TOTAL [2]: 1.9 g | LIVER [2]: 9.3 g | ALP [2]: 689.6 IU/L | ALT [2]: 32.6 IU/L | AST [2]: 59.6 IU/L | CRE [2]: 0.5 mg/dL | Ca [2]: 10.5 mg/dL | Cl [2]: 104.4 meq/L | DBIL [2]: 0.064 mg/dL | GLC [2]: 196.4 mg/dL | IP [2]: 9.5 mg/dL | K [2]: 4.7 meq/L | LDH [2]: 82.2 IU/L | Na [2]: 140 meq/L | PL [2]: 135.2 mg/dL | RALB [2]: 3.5 g/dL | TBIL [2]: 0.3 mg/dL | TC [2]: 79.8 mg/dL | TG [2]: 58.2 mg/dL | TP [2]: 5.3 g/dL | gamma-GTP [2]: 1.2 IU/L | TERMINAL_BW [3]: 195.9 g | APTT [3]: 17.1 s | Bas [3]: 0% | Eos [3]: 1% | Fbg [3]: 200.6 mg/dL | Hb [3]: 13 g/dL | Lym [3]: 76.4% | MCH [3]: 21.5 pg | MCHC [3]: 33.1% | MCV [3]: 64.9 fL | Mono [3]: 9.8% | RBC [3]: 605.8 x10_4/ul | Ret [3]: 10.2% | WBC [3]: 98.6 x10_2/uL | KIDNEY_L [3]: 0.9 g | KIDNEY_R [3]: 0.9 g | KIDNEY_TOTAL [3]: 1.8 g | LIVER [3]: 8 g | ALP [3]: 881.6 IU/L | ALT [3]: 33.4 IU/L | AST [3]: 73.2 IU/L | CRE [3]: 0.5 mg/dL | Ca [3]: 10.1 mg/dL | Cl [3]: 107.6 meq/L | DBIL [3]: 0.084 mg/dL | GLC [3]: 200.2 mg/dL | IP [3]: 10.4 mg/dL | K [3]: 4.9 meq/L | LDH [3]: 80.2 IU/L | Na [3]: 140 meq/L | PL [3]: 127.2 mg/dL | RALB [3]: 3.6 g/dL | TBIL [3]: 0.4 mg/dL | TC [3]: 73.2 mg/dL | TG [3]: 21.2 mg/dL | TP [3]: 5.1 g/dL | gamma-GTP [3]: 1.6 IU/L | TERMINAL_BW [4]: 212.6 g | APTT [4]: 17.5 s | Bas [4]: 0% | Eos [4]: 1.2% | Fbg [4]: 207.4 mg/dL | Hb [4]: 13.2 g/dL | Lym [4]: 76.6% | MCH [4]: 21.9 pg | MCHC [4]: 33.7% | MCV [4]: 64.9 fL | Mono [4]: 9.4% | RBC [4]: 602.2 x10_4/ul | Ret [4]: 12.5% | WBC [4]: 91.9 x10_2/uL | KIDNEY_L [4]: 1 g | KIDNEY_R [4]: 1 g | KIDNEY_TOTAL [4]: 2 g | LIVER [4]: 10.2 g | ALP [4]: 993.6 IU/L | ALT [4]: 33.8 IU/L | AST [4]: 63.8 IU/L | CRE [4]: 0.5 mg/dL | Ca [4]: 10.9 mg/dL | Cl [4]: 105.6 meq/L | DBIL [4]: 0.012 mg/dL | GLC [4]: 198.4 mg/dL | IP [4]: 8 mg/dL | K [4]: 4.7 meq/L | LDH [4]: 80.6 IU/L | Na [4]: 141.6 meq/L | PL [4]: 144.2 mg/dL | RALB [4]: 3.7 g/dL | TBIL [4]: 0.4 mg/dL | TC [4]: 73.8 mg/dL | TG [4]: 91.6 mg/dL | TP [4]: 5.5 g/dL | gamma-GTP [4]: 1.8 IU/L | TERMINAL_BW (25 mg/kg, 3 h, dose level Low): 196.9 g | APTT (25 mg/kg, 3 h, dose level Low): 16.9 s
